# Data published in article PMC10730845, “Endoxifen downregulates AKT phosphorylation through protein kinase C beta 1 inhibition in ERα+ breast cancer” (NPJ Breast Cancer, 2023).
# How the values were obtained:
# PKC thetha (PKCq) = PKC thetha (PKCq) (Homo sapiens, UniProt Q04759); test: In vitro kinase assay, PKC thetha; format: biochemical; details: 10 μM ATP
# Source text: . The IC50 concentrations of these drugs in inhibiting PKC kinase activity are provided in Supplementary Table 4.
# Supplementary Table 4. In vitro kinase assay showing the IC 50 concentration of ENDX and
# of the 12 PKC family members.
# *: not available due to no inhibition or compound activity that could not be fit to an IC50 curve.
# Staurosporine serves as the positive control.
# (1 picture or pasted object on this page, not shown here)
# [1] = test system: MCF7AC1 aromatase inhibitor-sensitive and -resistant models; parameters: method as in PMID 32430040; details: cited from earlier work
# T47D-LTED cells [2] = test: IncuCyte Annexin V apoptosis assay, T47D-LTED; format: cell-based, human; details: CSS medium, 48 h; 5 µM
# Description: MCF7AC1 and T47D-LTED cells were plated at a density of 2000 cells per well in CSS medium for 24 h. Cells were then co-treated for 48 h with vehicle or drug, IncuCyte Annexin V green reagent (#4642, 1:300), an early-stage apoptosis marker, and IncuCyte NucLight rapid red reagent (#4717, 1:500), a dye that stains all cell nuclei red, in CSS medium. MCF7AC1^caAKT cells were plated at a cell density of 2000 cells per well in CSS medium in the absence or presence of cumate for 48 h and then co-treated with vehicle or drug, Annexin V green and NucLight rapid red reagents in the absence or presence of cumate for an additional 48 h in CSS medium.
# (§1) Supplementary Figure 6. […] Cell viability is assessed by the crystal violet assay. b, MCF7AC1 cells were co-treated with vehicle control or 0.01, 0.1 and 5 µM MK-2206 and IncuCyte Annexin V green and NucLight rapid red reagents in CSS medi um for 48 hours. […]
# Cells were plated at a density of 2000 cells per well. c, MCF7AC1 cells were treated with vehicle control or 0.01, 0.1 and 5 µM MK-2206 in CSS medium for 24 hours. […] Cell viability is assessed by the crystal violet assay. f, Parental T47D and T47D-LTED cells were processed for protein lysates. […] Percentage of cells undergoing apoptosis was calculated as mentioned in b. i, T47D-LTED cells were treated with vehicle control or 0.01, 0.1 and 5 µM MK -2206 in CSS medium for 24 hours . […]
# [3] = test system: AKT^Ser473 phosphorylation in T47D-LTED cells; test: Immunoblot of pAKT^Ser473, T47D-LTED; format: cell-based, human; details: CSS medium, 24 h; 5 µM
# Description: Protein lysates were prepared using the RIPA lysis buffer system (ChemCruz #sc-24948) and quantified using the DC^TM Protein Assay reagents (Bio-Rad #5000112). Equal amounts of protein lysates were separated on 10% Criterion gels (Bio-Rad #3450112), transferred to PVDF membranes (Bio-Rad #1620177), blocked in TBST-5% milk and probed with primary antibodies listed in Supplementary Table 5, at the indicated dilutions. Membranes were incubated with HRP-conjugated anti-rabbit (CST #7074) or anti-mouse (CST #7076) secondary antibodies and visualized using chemiluminescent West Pico (Thermo Scientific #34580) or West Femto (Thermo Scientific #34096) reagents and a Li-Cor Odyssey® XF imager. Protein lysates from the MCF7AC1 xenograft model were obtained from a previous study. Quantitation of the protein bands signal intensity was performed using the NIH ImageJ image analysis software (https://imagej.nih.gov/ij///index.html). For the quantitation of the phospho protein levels, we first normalized total protein levels to β-actin loading control and used these values to normalize the phospho protein levels and compared change in protein expression levels relative to vehicle control normalized to 1.0. For the quantitation of total protein levels, we normalized the total protein levels to β-actin and compared change in expression levels relative to vehicle control normalized to 1.0. […]
# T47D-LTED cells [4] = test: Crystal violet cell viability assay, T47D-LTED; format: cell-based, human; details: CSS media, six days; 5 µM
# Description: Cells were plated at a density of 2000 cells per well. Cell viability of (i) vehicle or drug treated MCF7AC1 and T47D-LTED cells in CSS medium, (ii) siNT or siPKCβ-transfected MCF7AC1 cells in CSS medium and (iii) T47D cells in FBS versus CSS medium were analyzed by crystal violet staining assay after 6 days of treatment or siRNA transfection as previously described. Cell viability was calculated as the average absorbance of the drug treated cells divided by the average absorbance of the vehicle treated cells × 100.
# as §1
# Cells were plated at a density of 2000 cells per well. c, MCF7AC1 cells were treated with vehicle control or 0.01, 0.1 and 5 µM MK-2206 in CSS medium for 24 hours. […] Cell viability is assessed by the crystal violet assay. f, Parental T47D and T47D-LTED cells were processed for protein lysates. […] Cell viability is assessed by the crystal violet assay. h, T47D-LTED cells were co-treated with vehicle control or 0.01, 0.1 and 5 µM MK -2206 and IncuCyte Annexin V green and NucLight rapid red reagents in CSS medium for 48 hours. […] Cell viability is assessed by the crystal violet assay. […]
# [5] = cited from earlier work
# [6] = parameters: method as in PMID 24853369, PMID 28977607; details: low (10 mg/kg) and high (50 mg/kg) doses; cited from earlier work
# Chain of PKC thetha (PKCq) (Q04759 whole entry): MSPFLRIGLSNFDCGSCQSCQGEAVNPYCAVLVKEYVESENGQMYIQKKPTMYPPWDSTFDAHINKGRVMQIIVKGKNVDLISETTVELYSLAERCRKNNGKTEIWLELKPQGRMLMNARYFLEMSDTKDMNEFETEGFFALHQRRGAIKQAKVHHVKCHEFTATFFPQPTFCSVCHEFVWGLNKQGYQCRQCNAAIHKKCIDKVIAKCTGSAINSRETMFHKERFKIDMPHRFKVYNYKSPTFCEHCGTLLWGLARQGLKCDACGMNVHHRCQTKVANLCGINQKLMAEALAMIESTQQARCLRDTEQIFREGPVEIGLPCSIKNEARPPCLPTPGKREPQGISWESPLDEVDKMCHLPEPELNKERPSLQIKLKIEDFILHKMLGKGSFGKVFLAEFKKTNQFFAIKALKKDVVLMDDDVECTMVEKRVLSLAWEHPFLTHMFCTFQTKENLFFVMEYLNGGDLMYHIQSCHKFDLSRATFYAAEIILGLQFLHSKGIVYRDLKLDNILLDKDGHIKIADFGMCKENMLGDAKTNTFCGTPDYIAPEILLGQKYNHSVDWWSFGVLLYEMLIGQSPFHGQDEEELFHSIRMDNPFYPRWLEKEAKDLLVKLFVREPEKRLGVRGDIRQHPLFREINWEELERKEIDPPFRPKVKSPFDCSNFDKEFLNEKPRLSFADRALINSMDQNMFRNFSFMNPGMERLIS
compound,measurement,setting,value
"CC/C(=C(\c1ccc(O)cc1)c1ccc(OCCNC)cc1)c1ccccc1 [ENDX, Z-endoxifen]",IC50,PKC thetha (PKCq),41.8 µM
same,In vivo antitumor activity,[1],superior in vivo antitumor activity compared to TAM and letrozole
same,"Effect on apoptosis (annexin V binding, PARP1 cleavage)",T47D-LTED cells [2],induced apoptosis
same,Effect on AKT^Ser473 phosphorylation,[3],attenuated AKT^Ser473 phosphorylation
same,Effect on growth,T47D-LTED cells [4],inhibited growth
same,Effect on uterine weight and epithelial cell height,[5]; intact rats,substantially lowered uterine weight and increased epithelial cell height
same,Uterotrophic potency,[5]; ovariectomized Sprague-Dawley rats,less potent than estradiol in eliciting uterotrophic effects
same,Effects on the bone,[6],"increasing cancellous and cortical bone mass, reducing bone turnover, and protecting against bone loss"
